{
  "source": "patent US20250353851A1",
  "about": "“PURINES AND METHODS OF THEIR USE” (Kineta, Inc., priority 2021, published 2025)",
  "target": "T1, full-length human PIKFYVE (N-terminal GST-fusion) (Homo sapiens, UniProt Q9Y2I7, L932S/Q1183K/Q995L/S1033A/S696N/T998S)",
  "T1 construct": "A full-length human PIKFYVE [1-2098(end) amino acids; purchased Carna Biosciences; host or cells: baculovirus expression system",
  "T1 sequence (Q9Y2I7 whole entry S696N/L932S/Q995L/T998S/S1033A/Q1183K, the tested form may be a part)": "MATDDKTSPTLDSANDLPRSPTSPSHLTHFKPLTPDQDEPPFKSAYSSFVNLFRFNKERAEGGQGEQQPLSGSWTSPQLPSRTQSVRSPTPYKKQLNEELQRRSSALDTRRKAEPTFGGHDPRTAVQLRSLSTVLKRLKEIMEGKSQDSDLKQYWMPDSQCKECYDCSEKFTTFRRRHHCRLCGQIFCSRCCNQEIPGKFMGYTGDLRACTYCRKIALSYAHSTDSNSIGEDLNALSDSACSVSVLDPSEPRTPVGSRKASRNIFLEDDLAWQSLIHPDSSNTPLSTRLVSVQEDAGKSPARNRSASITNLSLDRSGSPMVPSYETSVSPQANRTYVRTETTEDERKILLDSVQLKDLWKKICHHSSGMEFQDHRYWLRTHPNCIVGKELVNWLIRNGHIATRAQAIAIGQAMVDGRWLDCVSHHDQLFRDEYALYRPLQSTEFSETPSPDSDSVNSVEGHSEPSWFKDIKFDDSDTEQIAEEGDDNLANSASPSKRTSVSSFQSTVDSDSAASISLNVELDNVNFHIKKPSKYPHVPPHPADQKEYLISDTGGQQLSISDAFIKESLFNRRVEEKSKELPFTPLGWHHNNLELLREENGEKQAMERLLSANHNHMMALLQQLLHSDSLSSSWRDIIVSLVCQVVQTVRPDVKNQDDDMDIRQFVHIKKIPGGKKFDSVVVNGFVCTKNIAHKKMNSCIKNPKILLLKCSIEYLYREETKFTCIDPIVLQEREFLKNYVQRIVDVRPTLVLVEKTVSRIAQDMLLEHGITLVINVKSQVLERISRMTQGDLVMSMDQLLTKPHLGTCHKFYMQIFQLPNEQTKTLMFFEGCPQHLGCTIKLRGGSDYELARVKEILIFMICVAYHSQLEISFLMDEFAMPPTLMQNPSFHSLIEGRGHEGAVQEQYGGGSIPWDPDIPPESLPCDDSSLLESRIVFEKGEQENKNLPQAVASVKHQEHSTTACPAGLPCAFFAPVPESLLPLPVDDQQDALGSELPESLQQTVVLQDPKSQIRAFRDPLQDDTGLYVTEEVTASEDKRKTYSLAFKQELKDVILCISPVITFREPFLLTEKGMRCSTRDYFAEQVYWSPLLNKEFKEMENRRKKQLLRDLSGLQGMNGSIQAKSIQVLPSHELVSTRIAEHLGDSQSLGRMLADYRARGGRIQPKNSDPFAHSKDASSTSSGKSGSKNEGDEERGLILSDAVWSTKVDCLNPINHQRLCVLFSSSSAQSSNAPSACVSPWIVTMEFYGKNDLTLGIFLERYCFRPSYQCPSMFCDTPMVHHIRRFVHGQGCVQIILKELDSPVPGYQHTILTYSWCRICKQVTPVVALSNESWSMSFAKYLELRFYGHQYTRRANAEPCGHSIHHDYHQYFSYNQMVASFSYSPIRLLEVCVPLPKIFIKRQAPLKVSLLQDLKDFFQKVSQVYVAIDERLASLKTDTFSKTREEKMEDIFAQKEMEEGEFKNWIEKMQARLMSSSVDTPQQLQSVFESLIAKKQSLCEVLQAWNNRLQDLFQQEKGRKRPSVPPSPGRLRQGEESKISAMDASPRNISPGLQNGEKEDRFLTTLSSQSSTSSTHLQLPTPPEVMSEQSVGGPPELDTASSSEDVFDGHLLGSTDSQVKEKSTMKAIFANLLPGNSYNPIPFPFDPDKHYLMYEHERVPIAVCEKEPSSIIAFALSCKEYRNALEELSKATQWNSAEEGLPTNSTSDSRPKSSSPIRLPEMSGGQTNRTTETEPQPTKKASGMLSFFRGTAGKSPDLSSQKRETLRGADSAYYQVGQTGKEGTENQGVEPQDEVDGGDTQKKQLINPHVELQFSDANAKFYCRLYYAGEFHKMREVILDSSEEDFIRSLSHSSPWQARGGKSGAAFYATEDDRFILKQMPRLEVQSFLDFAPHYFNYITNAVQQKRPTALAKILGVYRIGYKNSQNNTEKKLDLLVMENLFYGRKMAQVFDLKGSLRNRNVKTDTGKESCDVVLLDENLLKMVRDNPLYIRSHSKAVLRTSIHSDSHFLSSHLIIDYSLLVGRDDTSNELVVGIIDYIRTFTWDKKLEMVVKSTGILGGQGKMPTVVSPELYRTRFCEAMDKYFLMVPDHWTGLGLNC",
  "test": "PIKfyve Biochemical Assay (ADP-Glo Kinase assay, Carna Biosciences)",
  "procedure": "PIKfyve Biochemical Assay. The biochemical PIKFyve inhibition assays were run by Carna Biosciences according to proprietary methodology based on the Promega ADP-Glo™ Kinase assay. […] GST-PIKFYVE was purified by using glutathione sepharose chromatography and used in an ADP-Glo™ Kinase assay (Promega). Reactions were set up by adding the test compound solution, substrate solution, ATP solution and kinase solution, each at 4× final concentrations. Reactions were prepared with assay buffer (50 mM MOPS, 1 mM DTT, pH7.2), mixed, and incubated in black 384 well polystyrene plates for 1 hour at room temperature. ADP-Glo™ reagent was then added for 40 minutes, followed by kinase detection reagent for an additional 40 minutes. The kinase activity was evaluated by detecting relative light units on a luminescence plate reader. Samples were run in duplicate from 10 μM to 3 nM. […] IC50 values were calculated from concentration vs % inhibition curves by fitting to a four-parameter logistic curve.\nThe biochemical PIKFyve inhibition assays were run by Carna Biosciences according to proprietary methodology based on the Promega ADP-Glo™ Kinase assay. […] The kinase activity was evaluated by detecting relative light units on a luminescence plate reader. […] IC50 values were calculated from concentration vs % inhibition curves by fitting to a four-parameter logistic curve. […]",
  "data": [
    {"smiles": "CCn1c(C(C)O)nc2c(N3CCCCC3)nc(-c3cccc(-c4ccn(C)n4)c3)nc21", "note": "(stereo not shown) [Compound 339, 1-(9-ethyl-2-(3-(1-methyl-1H-pyrazol-3-yl)phenyl)-6-(piperidin-1-yl)-9H-purin-8-yl)ethan-1-ol]", "values": [
      {"measurement": "IC50", "result": 4.41, "unit": "µM"}
    ]}
  ]
}
